Entries after “also recorded” stand apart in the source; their conditions may differ. Like-named read-outs stand apart in the source and are kept apart here. Square brackets hold non-standard residues; d marks the D form. Ends that are not written are not given here.
How the values were obtained:
mice [1] = test: 4F peptide without end groups in mice; assay type: in vivo
Source text: The 4F peptide (Ac-D-W-F-K-A-F-Y-D-K-V-A-E-K-F-K-E-A-F-NH2, (SEQ ID NO:1)) has end blocking groups (Ac— and —NH2) that stabilize the class A amphipathic helix and dramatically increase efficacy (Venkatachalapathi et al. (1993) Proteins Structure Function Genet. 15: 349-359; Yancey et al. (1995) Biochemistry. 34: 7955-7965; Datta et al. (2001) J. Lipid Res. 42: 1096-1104; Anantharamaiah et al. (2007) J. Lipid Res., 48: 1915-1923). […] The required end (protecting) groups for 4F and for a number of other apoA-I mimetic peptides (Navab et al. (2010) Arterioscler. Thromb. Vasc. Biol. 30: 164-168) can only be added by chemical synthesis; living organisms cannot be engineered to make a molecule containing these end groups. Thus, the production of peptide for clinical use at these doses would not be practical because of the cost of producing this amount of peptide by solid phase synthesis.
Unfortunately, producing sufficient peptide to make therapy in humans practical was not likely because the 4F peptide requires end blocking groups that can only be added through chemical synthesis. […] This led us to seek alternative peptides synthesized from all L-amino acids that might be effective without end blocking groups.

human artery wall cells = conditions: cited from earlier work; for inhibition of LDL-induced MCP-1 production by cultured human artery wall cells: Datta et al. (2001); for inhibiting monocyte chemotactic activity production by human artery wall cells exposed to human LDL: FIG. 1, adapted from Datta et al. (2001)
apoE−/− mice [2] = conditions: cited from earlier work
[3] = test system: mouse model of ovarian cancer; conditions: cited from earlier work
[4] = test system: LDL-induced monocyte chemoattractant protein-1 (MCP-1) production by cultured human artery wall cells; conditions: cited from earlier work
cholesterol-fed rabbits = conditions: 10 mg/kg/day; cited from earlier work
LDLR−/− mice [5] = conditions: cited from earlier work
[6] = in vivo; cited from earlier work
[7] = test system: enzymes involved in the formation of LPA; test: Microarray of gene expression in the small intestine; assay type: in vivo, mice; conditions: Western Diet or chow, D-4F in drinking water
Method: To explore the mechanism of action, a microarray experiment to determine gene expression levels in the small intestine from mice fed the Western Diet or a chow diet and given or not given D-4F in their drinking water was performed. It was previously shown that D-4F administration reduces LPA levels similar to transgenic 6F tomatoes.

[8] = test system: apolipoprotein (apo)E null mice; conditions: cited from earlier work
[9] = test system: apoE−/− mice made diabetic; conditions: oral administration; cited from earlier work
LDLR−/− mice [10] = conditions: cited from earlier work; for intact peptide in plasma after oral administration: mouse, in vivo; for inflammatory properties of HDL and LDL in a cell-based assay: single dose 5 mg/kg by stomach tube, four hours, 5 mg/kg
apoE−/− mice [11] = conditions: cited from earlier work; remark: listed apart in the source
[12] = Identification and quantification of 6F in small intestine and plasma; assay type: in vivo, mice
Method: Female LDLR−/− mice 8-9 months of age (n=6) were fasted overnight and fed WD with transgenic 6F lyophilized tomato powder added to WD to provide 900 μg of 6F in 2 grams of diet. Over a period of 30-90 minutes, each mouse ate all of the 2 grams of diet. Approximately 2 hours after finishing the food the mice were bled and the small intestine was obtained (including contents), homogenized in acetonitrile:water (1:1), chromatographed by HPLC and subjected to SDS PAGE as described in Materials and Methods of Example 3. Plasma was lyophilized and resuspended in acetonitrile:water (1:1), chromatographed by HPLC and subjected to SDS PAGE as described in Materials and Methods of Example 3. […] The lanes were scanned for quantification as described in Materials and Methods of Example 3.
For analysis of the small intestine, 200 mg of small intestine (including contents) were homogenized in 10 mL of acetonitrile:water (1:1) and the homogenates were lyophilized and re-suspended in 400 μL of acetonitrile:water (1:1). […] Samples were run on HPLC using a C-18 Reverse Phase analytical column and a gradient solvent system of acetonitrile: water (30% to 80% in 20 min) in the presence of 0.1% TFA and monitored at 280 nm. […]
The data presented above indicate that the peptide in the transgenic 6F tomatoes is acting in the small intestine. […] No 6F peptide was detected in the plasma of any of the six mice. […]

mice [13] = conditions: mouse, in vivo; cited from earlier work
[14] = doses of 4.5 and 45 mg/kg, oral or SQ

## Ac-D-W-F-K-A-F-Y-D-K-V-A-E-K-F-K-E-A-F-NH2 (Ac-DWFKAFYDKVAEKFKEAF-NH2) [4F]
Mice [1]; mice, without Ac- and -NH2 end groups, unpublished studies
  fold less effective in vivo in the absence of the end groups: 25,000 fold
Human artery wall cells
  inhibition of LDL-induced MCP-1 production by cultured human artery wall cells: highly effective
  inhibiting monocyte chemotactic activity production by human artery wall cells exposed to human LDL: indistinguishable
apoE−/− mice [2]; after administration of the 4F peptide
  plasma levels of free oxidized fatty acids (5-HETE, 15-HETE, 9-HODE, 13-HODE): significantly decreased
apoE−/− mice [2]; mouse, in vivo
  esterified oxidized fatty acid levels: unchanged
  plasma levels of 20-HETE: did not decrease
[3]; mouse, in vivo
  number of tumor nodules: reduction
  tumor volume: significant reduction

## Ac-D-W-F-K-A-F-Y-D-K-V-A-E-K-F-K-E-A-F-NH2 [D-4F] (Ac-[dD][dW][dF][dK][dA][dF][dY][dD][dK][dV][dA][dE][dK][dF][dK][dE][dA][dF]-NH2)
[4]; oral doses of 0.43 and 1.43 mg/kg
  HDL inflammatory index (HII): not effective
[4]; oral doses of 4.3 and 7.14 mg/kg
  HDL inflammatory index (HII): significantly improved
cholesterol-fed rabbits
  efficacy of L-4F and D-4F by injection: identical
LDLR−/− mice [5]; SQ D-4F, chow without WD
  changes in SAA, triglycerides, HDL-cholesterol and paroxonase activity induced by feeding 15-HETE in chow: significantly ameliorated
LDLR−/− mice [5]; SQ or oral
  HDL-cholesterol: increased
  plasma SAA levels: reduced
  plasma triglyceride levels: reduced
LDLR−/− mice [5]; SQ or orally
  levels of 20-HETE: unchanged
  levels of free metabolites of arachidonic and linoleic acids in intestine, liver and hepatic bile: significantly reduced
[6]
  clearance from tissues, particularly liver and kidney: delayed clearance
[7]
  expression of enzymes involved in the formation of LPA: none of the enzymes involved in the formation of LPA changed their expression significantly
[8]; 45 mg/kg/day, Western diet, orally or SQ
  reduction of aortic atherosclerosis: ~50%
[8]; 45 mg/kg/day, Western diet
  plasma levels of SAA: significantly reduced
  plasma levels of lysophosphatidic acid: significantly reduced
[8]; doses of 0.15 or 0.45 mg/kg
  HDL inflammatory index: did not
  plasma serum amyloid A (SAA) levels: did not
[8]; [14]
  HDL inflammatory index: significantly reduced
  plasma serum amyloid A (SAA) levels: significantly reduced
[9]
  aortic atherosclerosis: significantly decreased
  hepatic content of free arachidonic acid and free oxidized fatty acids: significantly decreased
  other plasma lipid or lipoprotein levels: without affecting
LDLR−/− mice [10]
  intact peptide in plasma after oral administration: intact peptide identified
  inflammatory properties of HDL and LDL in a cell-based assay: dramatically and significantly improved

## Ac-D-W-F-K-A-F-Y-D-K-V-A-E-K-F-K-E-A-F-NH2 [L-4F] (Ac-DWFKAFYDKVAEKFKEAF-NH2)
apoE−/− mice [11]; L-4F administered with niclosamide
  aortic lesions: induced lesion regression
apoE−/− mice [11]; in chow 10 mg/kg/day for six months with low dose statin in drinking water
  aortic atherosclerosis: did not significantly change
[4]; 0.042-1.43 mg/kg IV or SQ
  HDL inflammatory index (HII): no improvement
cholesterol-fed rabbits
  efficacy of L-4F and D-4F by injection: identical
[6]
  clearance from tissues, particularly liver and kidney: this was not the case
[3]; L-4F containing blocking groups, b323: in mouse chow, 100 mg/kg/day
  LPA levels: significantly reduced; also recorded: significantly decreased
[3]; in mouse chow, 100 mg/kg/day
  tumor burden: significantly decreased
LDLR−/− mice [10]
  intact peptide in plasma after oral administration: virtually no intact peptide
  inflammatory properties of HDL and LDL in a cell-based assay: not

## DWFKAFYDKFFEKFKEFF [7F, apoA-I mimetic peptide]
Human artery wall cells
  inhibition of LDL-induced MCP-1 production by cultured human artery wall cells: did not

## DWFKAFYDKVAEKFKEAF [4F peptide without end blocking groups, 4F peptide lacking the Ac- and -NH2 end groups]
Mice [1]; mouse models, data not shown
  activity of the peptide without end blocking groups: dramatically reduced

## DWLKAFYDKFFEKFKEFF [6F, D-W-L-K-A-F-Y-D-K-F-F-E-K-F-K-E-F-F]
[12]; ~2 hours after eating 900 μg of 6F in transgenic 6F tomato powder
  6F peptide in the plasma (not detected; lower limit of detection): < 100 ng/mL
[12]; ~2 hours after eating 900 μg of 6F in transgenic 6F tomato powder in 2 grams of WD, n=6
  intact 6F peptide in the small intestine (Mean±SD): 15.6±7.4 μg 6F per 200 mg small intestine

## DWLKAFYDKVAEKLKEAF [2F, apoA-I mimetic peptide with phenylalanine at positions 6 and 18]
Human artery wall cells
  inhibition of LDL-induced MCP-1 production by cultured human artery wall cells: not very effective
Mice [13]
  diet induced atherosclerosis in mice: failed to decrease

## DWLKAFYDKVFEKFKEFF [5F, apoA-I mimetic peptide]
Human artery wall cells
  inhibition of LDL-induced MCP-1 production by cultured human artery wall cells: able to efficiently inhibit
  inhibiting monocyte chemotactic activity production by human artery wall cells exposed to human LDL: indistinguishable
Mice [13]
  diet induced atherosclerosis in mice: inhibiting atherosclerosis
  tumor angiogenesis in mice: inhibiting tumor angiogenesis
